Source: patent US4350699A, “Pyridylalkoxysulfinyl derivatives of carbamate esters” (priority 1981, dated 1982)

Key:
[1] = system: House Flies; conditions: for toxicity against house flies (in words): judged from LD50 of Table I; for House Flies LD50: topical on the notum, 1 μl acetone solution, 24 hours
Procedure: (§1) Representative compounds of the pyridylalkoxysulfinyl derivatives of carbamate esters of the invention were tested for insecticidal activity against house flies and tobacco cutworms, and for mammalian toxicity against mice.
In the test for houseflies, stock 1% concentrated solutions of each of the test compounds and the commercially related carbamate ester insecticide, methomyl, were made in acetone, and such solutions were diluted with acetone to a concentration of 0.001-0.1%. House flies were treated topically on the notum by 1 μl of each of the diluted acetone solutions and percent mortality was counted 24 hours after application.

[2] = system: tobacco cutworms; assay: test against tobacco cutworms (3rd instar larvae), cabbage leaf dip, mortality counted 72 hours after the treatment; type: in vivo; conditions: for mortality at 100 ppm / mortality at 500 ppm: foliar, leaf dip, 72 hours
Procedure: In the test against tobacco cutworms, aqueous solutions containing each toxicant at 100 and 500 ppm and an emulsifying agent, Shingramin, at 0.03% were prepared. The composition of Shingramin is understood to consist of 20% of polyoxyethylene dodecyl ether and polyoxyethylene alkylaryl ether, 12% ligninsulfonates and 68% inert solvents, by weight. A cabbage leaf was dipped into each of these solutions for 30 seconds, and put in a paper cup of 8 cm diameter. Ten tobacco cutworms (3rd instar larvae) were released onto the leaf. Two leaves were used for each dilution. Mortality of the insects was counted 72 hours after the treatment.

[3] = in vivo; conditions: mouse, in vivo, po
Procedure: as §1
(§2) Mammalian toxicity was determined against Swiss white mice. The test compound was applied orally using propylene glycol as the carrier.

[4] = system: Mice; assay: in vivo; conditions: compared with parent carbamate (methomyl or MIP)
Procedure: as §1, §2

Row | Structure (SMILES) | toxicity against house flies (in words) [1] | House Flies LD50 [1] [µg/g] | potency for tobacco cutworms (in words) ([2]; compared with methomyl) | mortality at 100 ppm [2] [%] | mortality at 500 ppm [2] [%] | LD50 [3] [mg/kg] | mammalian toxicity (in words) [4]
1 | CSC(C)=NOC(=O)N(C)S(=O)OCc1ccccn1 (stereo not shown) [I, S-methyl N-[N'-methyl-N'-(2-pyridylmethoxy)-sulfinylcarbamoyloxy] thioacetimidate] | good toxicity | 7.0 | not as potent as methomyl | 5 | 65 | 85 | low
2 | CSC(C)=NOC(=O)N(C)S(=O)OCc1cccnc1 (stereo not shown) [III, S-methyl N-[N'-methyl-N'-(3-pyridylmethoxy)sulfinylcarbamoyloxy]-thioacetimidate] | good toxicity | 5.8 |  | 85 | 100 | 96 | low
3 | CC(C)c1cccc(OC(=O)N(C)S(=O)OCc2ccccn2)c1 (stereo not shown) [IX, 3-Isopropylphenyl N-(2-pyridylmethoxysulfinyl)-N-methylcarbamate] | good toxicity | 111.5 |  |  |  | 105 | substantially lower mammalian toxicity
4 | CNC(=O)Oc1cccc(C(C)C)c1 [MIP, reference compound] |  |  |  |  |  |  | much higher mammalian toxicity
5 | CNC(=O)ON=C(C)SC [methomyl, reference compound] |  | 3.7 |  | 100 | 100 |  | much higher toxicity
